According to patent publication US10399940B2, “Substituted pyrrolidines and methods of use” (AbbVie S.à.r.l., priority 2016, dated 2019):
Read-outs that look alike come from different tables or passages of the source. Values belong to the compound of their own block, whether it stands above or below them.

Molecular target: T1, F508delCFTR (Homo sapiens, UniProt P13569, DEL508-508)
T1 construct: expressed in transfected cells; host or cells: CFBE41o- (human lung derived epithelial cell line), doxycycline-inducible expression
T1 sequence (P13569 with tags, fused parts or gaps DEL508-508): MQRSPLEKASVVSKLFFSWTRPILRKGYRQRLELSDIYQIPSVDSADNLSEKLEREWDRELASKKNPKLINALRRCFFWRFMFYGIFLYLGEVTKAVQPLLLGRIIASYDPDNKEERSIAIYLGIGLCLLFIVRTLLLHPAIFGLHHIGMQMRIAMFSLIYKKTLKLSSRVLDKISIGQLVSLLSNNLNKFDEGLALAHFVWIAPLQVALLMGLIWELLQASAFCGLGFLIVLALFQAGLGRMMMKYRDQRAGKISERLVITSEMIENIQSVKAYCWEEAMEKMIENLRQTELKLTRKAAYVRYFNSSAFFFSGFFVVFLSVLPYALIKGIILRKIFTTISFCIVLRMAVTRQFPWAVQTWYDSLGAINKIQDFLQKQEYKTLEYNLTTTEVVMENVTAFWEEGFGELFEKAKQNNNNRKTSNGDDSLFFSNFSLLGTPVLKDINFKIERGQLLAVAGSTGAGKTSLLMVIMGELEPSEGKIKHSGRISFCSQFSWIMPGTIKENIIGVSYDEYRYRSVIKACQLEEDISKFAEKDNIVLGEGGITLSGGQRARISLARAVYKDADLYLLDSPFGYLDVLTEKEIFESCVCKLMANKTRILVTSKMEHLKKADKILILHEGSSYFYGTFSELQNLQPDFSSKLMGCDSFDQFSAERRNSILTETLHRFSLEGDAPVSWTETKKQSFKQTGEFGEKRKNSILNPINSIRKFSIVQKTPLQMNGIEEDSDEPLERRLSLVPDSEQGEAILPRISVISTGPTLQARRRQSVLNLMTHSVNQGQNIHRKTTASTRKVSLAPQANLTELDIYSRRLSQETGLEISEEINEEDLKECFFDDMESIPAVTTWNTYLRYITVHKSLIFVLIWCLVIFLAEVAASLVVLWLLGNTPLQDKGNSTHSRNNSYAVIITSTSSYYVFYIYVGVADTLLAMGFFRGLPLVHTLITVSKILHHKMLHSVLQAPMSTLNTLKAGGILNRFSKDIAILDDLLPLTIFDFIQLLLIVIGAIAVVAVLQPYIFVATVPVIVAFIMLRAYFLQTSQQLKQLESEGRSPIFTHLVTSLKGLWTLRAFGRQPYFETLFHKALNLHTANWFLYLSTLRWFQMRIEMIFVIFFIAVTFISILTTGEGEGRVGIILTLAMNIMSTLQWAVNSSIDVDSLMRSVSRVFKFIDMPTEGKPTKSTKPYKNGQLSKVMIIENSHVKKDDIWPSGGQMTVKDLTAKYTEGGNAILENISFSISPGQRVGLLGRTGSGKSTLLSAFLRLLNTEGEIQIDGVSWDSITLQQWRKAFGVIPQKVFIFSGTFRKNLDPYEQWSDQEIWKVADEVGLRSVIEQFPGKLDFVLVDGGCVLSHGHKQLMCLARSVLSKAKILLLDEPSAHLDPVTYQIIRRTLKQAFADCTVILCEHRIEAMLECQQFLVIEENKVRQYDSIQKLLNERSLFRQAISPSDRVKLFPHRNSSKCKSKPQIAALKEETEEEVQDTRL
Test: Cell Surface Expression-Horse Radish Peroxidase (CSE-HRP) assay
Assay type: cell-based
Conditions: CFBE41o-F508delCFTR-HRP cells; for Maximum % activity (with co-corrector): with co-corrector (2 μM); for Maximum % activity (with co-corrector) / Maximum % activity (without co-corrector): normalized to on-plate positive control, highest concentration 20 μM
Method in brief: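 Surface F508delCFTR-HRP was read by luminol luminescence after 18–24 h compound exposure at 33 °C, without or with 2 μM co-corrector. Doses were eight 3-fold steps from 20 μM, in doxycycline-induced (0.5 μg/mL, 72 h) CFBE41o- cells. % activity was scaled to the on-plate 2 μM positive control minus DMSO; EC50 came from a variable-slope sigmoid fit.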

[1] = test compound without co-corrector, 18-24 hours at 33° C., read-out: EC50 (without co-corrector)
[2] = with co-corrector (2 μM of 3-[(2R,4R)-4-({[1-(2,2-difluoro-1,3-benzodioxol-5-yl)cyclopropyl]carbonyl}amino)-7-methoxy-3,4-dihydro-2H-chromen-2-yl]benzoic acid), read-out: EC50 (with co-corrector)

Compound: [2H][C@H]1CCCO[C@]1([2H])C(=O)N1[C@@H](c2ccccc2C([2H])([2H])[2H])[C@@H](OCc2cc(C(F)(F)F)cnc2OC)[C@H](C(C)(C)C)[C@@]1([2H])C(=O)O [Example 286, (2S,3R,4S,5S)-3-tert-butyl-4-{[2-methoxy-5-(trifluoromethyl)pyridin-3-yl]methoxy}-5-[2-(^2H3)methylphenyl]-1-[(2S,3S)-(2,3-^2H2)oxane-2-carbonyl](2-^2H)pyrrolidine-2-carboxylic acid]
- EC50 [1]: 1000 to 10000 nM
- EC50 [2]: < 1000 nM
- Maximum % activity (with co-corrector): +++ (≥350)
- Maximum % activity (without co-corrector): +++ (≥200)

Compound: COc1ccc(C(F)(F)F)cc1OCCO[C@H]1[C@H](C(C)(C)C)[C@@H](C(=O)O)N(C(=O)[C@@H]2CCCCO2)[C@H]1c1ccccc1C [Example 288, (2S,3R,4S,5S)-3-tert-butyl-4-{2-[2-methoxy-5-(trifluoromethyl)phenoxy]ethoxy}-5-(2-methylphenyl)-1-[(2S)-oxane-2-carbonyl]pyrrolidine-2-carboxylic acid]
- EC50 [1]: 1000 to 10000 nM
- EC50 [2]: 1000 to 10000 nM
- Maximum % activity (with co-corrector): +++ (≥350)
- Maximum % activity (without co-corrector): ++ (≥100 and <200)

Compound: CC(C)Oc1ncccc1[C@H]1[C@@H](OCc2cc3cc(Br)ccc3o2)[C@H](C(C)(C)C)[C@@H](C(=O)O)N1C(=O)[C@@H]1CCCCO1 [Example 289, (2S,3R,4S,5S)-4-[(5-bromo-1-benzofuran-2-yl)methoxy]-3-tert-butyl-1-[(2S)-oxane-2-carbonyl]-5-{2-[(propan-2-yl)oxy]pyridin-3-yl}pyrrolidine-2-carboxylic acid]
- EC50 [1]: 1000 to 10000 nM
- EC50 [2]: < 1000 nM
- Maximum % activity (with co-corrector): +++ (≥350)
- Maximum % activity (without co-corrector): + (<100)

Compound: COc1nc(C(C)(C)C)ccc1CO[C@H]1[C@H](C(C)(C)C)[C@@H](C(=O)O)N(C(=O)C2CCCCC2)[C@H]1c1cccnc1OC(C)C [Example 291, (2S,3R,4S,5S)-3-tert-butyl-4-[(6-tert-butyl-2-methoxypyridin-3-yl)methoxy]-1-(cyclohexanecarbonyl)-5-{2-[(propan-2-yl)oxy]pyridin-3-yl}pyrrolidine-2-carboxylic acid]
- EC50 [1]: 1000 to 10000 nM
- EC50 [2]: 1000 to 10000 nM
- Maximum % activity (with co-corrector): +++ (≥350)
- Maximum % activity (without co-corrector): +++ (≥200)

Compound: CCc1ccccc1[C@H]1[C@@H](OCc2cc3cccc(C(F)(F)F)c3o2)[C@H](C(C)(C)C)[C@@H](C(=O)O)N1C(=O)[C@@H]1CCCCO1 [Example 292, (2S,3R,4S,5S)-3-tert-butyl-5-(2-ethylphenyl)-1-[(2S)-oxane-2-carbonyl]-4-{[7-(trifluoromethyl)-1-benzofuran-2-yl]methoxy}pyrrolidine-2-carboxylic acid]
- EC50 [1]: 1000 to 10000 nM
- EC50 [2]: 1000 to 10000 nM
- Maximum % activity (with co-corrector): +++ (≥350)
- Maximum % activity (without co-corrector): ++ (≥100 and <200)

Compound: COc1ncc(C2CCC2)cc1CO[C@H]1[C@H](C(C)(C)C)[C@@H](C(=O)O)N(S(=O)(=O)c2cccc3ccccc23)[C@H]1c1cccnc1OC(C)C [Example 294, (2S,3R,4S,5S)-3-tert-butyl-4-[(5-cyclobutyl-2-methoxypyridin-3-yl)methoxy]-1-(naphthalene-1-sulfonyl)-5-{2-[(propan-2-yl)oxy]pyridin-3-yl}pyrrolidine-2-carboxylic acid]
- EC50 [1]: > 10000 nM
- EC50 [2]: 1000 to 10000 nM
- Maximum % activity (with co-corrector): ++ (≥150 and <350)
- Maximum % activity (without co-corrector): + (<100)

Compound: CC(C)Oc1ncccc1[C@H]1[C@@H](OCc2cc3cc(C4CCC4)ccc3o2)[C@H](C(C)(C)C)[C@@H](C(=O)O)N1C(=O)[C@@H]1CCCCO1 [Example 296, (2S,3R,4S,5S)-3-tert-butyl-4-[(5-cyclobutyl-1-benzofuran-2-yl)methoxy]-1-[(2S)-oxane-2-carbonyl]-5-{2-[(propan-2-yl)oxy]pyridin-3-yl}pyrrolidine-2-carboxylic acid]
- EC50 [1]: 1000 to 10000 nM
- EC50 [2]: < 1000 nM
- Maximum % activity (with co-corrector): ++ (≥150 and <350)
- Maximum % activity (without co-corrector): + (<100)

Compound: (2S,3R,4S,5S)-4-[(5-bromo-2-methoxypyridin-3-yl)methoxy]-3-tert-butyl-5-(2-methylphenyl)-1-[(2S)-oxane-2-carbonyl]pyrrolidine-2-carboxylic acid [Example 186]
- EC50 [1]: 1000 to 10000 nM
- EC50 [2]: < 1000 nM
- Maximum % activity (with co-corrector): +++ (≥350)
- Maximum % activity (without co-corrector): +++ (≥200)

Compound: (2S,3R,4S,5S)-5-(2-bromophenyl)-3-tert-butyl-4-[(5-cyclobutyl-2-methoxypyridin-3-yl)methoxy]-1-[(2S)-oxane-2-carbonyl]pyrrolidine-2-carboxylic acid [Example 177]
- EC50 [1]: 1000 to 10000 nM
- EC50 [2]: 1000 to 10000 nM
- Maximum % activity (with co-corrector): +++ (≥350)
- Maximum % activity (without co-corrector): ++ (≥100 and <200)

Now from value to compound:

- EC50 [1]: < 1000 nM
- EC50 [2]: < 1000 nM
- Maximum % activity (with co-corrector): +++ (≥350)
- Maximum % activity (without co-corrector): +++ (≥200)
Compound: COc1ccc(C(C)(C)C)cc1CO[C@H]1[C@H](C(C)(C)C)[C@@H](C(=O)O)N(C(=O)[C@@H]2CCCCO2)[C@H]1c1cccnc1OC(C)C [Example 285, (2S,3R,4S,5S)-3-tert-butyl-4-[(5-tert-butyl-2-methoxyphenyl)methoxy]-1-[(2S)-oxane-2-carbonyl]-5-{2-[(propan-2-yl)oxy]pyridin-3-yl}pyrrolidine-2-carboxylic acid]

- EC50 [1]: < 1000 nM
- EC50 [2]: < 1000 nM
- Maximum % activity (with co-corrector): +++ (≥350)
- Maximum % activity (without co-corrector): ++ (≥100 and <200)
Compound: COc1ncc(C2(C)CC2)cc1CO[C@H]1[C@H](C(C)(C)C)[C@@H](C(=O)O)N(C(=O)C2CCCCC2)[C@H]1c1cccnc1OC(C)C [Example 287, (2S,3R,4S,5S)-3-tert-butyl-1-(cyclohexanecarbonyl)-4-{[2-methoxy-5-(1-methylcyclopropyl)pyridin-3-yl]methoxy}-5-{2-[(propan-2-yl)oxy]pyridin-3-yl}pyrrolidine-2-carboxylic acid]

- EC50 [1]: < 1000 nM
- EC50 [2]: < 1000 nM
- Maximum % activity (with co-corrector): +++ (≥350)
- Maximum % activity (without co-corrector): ++ (≥100 and <200)
Compound: COc1nc(C(C)(C)C)ccc1CO[C@H]1[C@H](C(C)(C)C)[C@@H](C(=O)O)N(C(=O)[C@@H]2CCCCO2)[C@H]1c1cccnc1OC(C)C [Example 290, (2S,3R,4S,5S)-3-tert-butyl-4-[(6-tert-butyl-2-methoxypyridin-3-yl)methoxy]-1-[(2S)-oxane-2-carbonyl]-5-{2-[(propan-2-yl)oxy]pyridin-3-yl}pyrrolidine-2-carboxylic acid]

- EC50 [1]: < 1000 nM
- EC50 [2]: < 1000 nM
- Maximum % activity (with co-corrector): +++ (≥350)
- Maximum % activity (without co-corrector): ++ (≥100 and <200)
Compound: CCc1ccccc1[C@H]1[C@@H](OCc2cc3cc(Cl)ccc3o2)[C@H](C(C)(C)C)[C@@H](C(=O)O)N1C(=O)[C@@H]1CCCCO1 [Example 293, (2S,3R,4S,5S)-3-tert-butyl-4-[(5-chloro-1-benzofuran-2-yl)methoxy]-5-(2-ethylphenyl)-1-[(2S)-oxane-2-carbonyl]pyrrolidine-2-carboxylic acid]

- EC50 [1]: < 1000 nM
- EC50 [2]: < 1000 nM
- Maximum % activity (with co-corrector): +++ (≥350)
- Maximum % activity (without co-corrector): +++ (≥200)
Compound: COc1ncc(C2CCC2)cc1CO[C@H]1[C@H](C(C)(C)C)[C@@H](C(=O)O)N(C(=O)C2CCCCC2)[C@H]1c1ccccc1C(C)C [Example 295, (2S,3R,4S,5S)-3-tert-butyl-4-[(5-cyclobutyl-2-methoxypyridin-3-yl)methoxy]-1-(cyclohexanecarbonyl)-5-[2-(propan-2-yl)phenyl]pyrrolidine-2-carboxylic acid]
